Patent publication US20260083789A1, “FORMULATION FOR STIMULATING HAIR GROWTH AND IMPROVING QUALITY AND METHOD OF PREPARATION OF THE SAME” (ARJUNA NATURAL PRIVATE LIMITED, priority 2022, published 2026)

Tests used:
[1] = test system: HDFs; test: In vitro cell based scratch assay (wound healing); set-up: species or system human; settings: negative control 89.798 %
Method: In vitro cell based scratch assay is one of the most apt and economic procedures for preliminary examination of wound healing potential of any medicinal extract. […] Cell migration was monitored at 0 hour, 24 hours and 48 hours and wound closure distance was calculated by Image J software.

[2] = test system: Human dermal fibroblasts (HDFa) cells; test: MTT assay, cell viability / proliferation; format: cell-based; settings: HDFs
Method: Human dermal fibroblasts (HDFa) cells were maintained in DMEM high glucose media (Himedia) with 10% FBS and 40 units/ml of penicillin & 40 μg/mL of streptomycin (Thermo Fisher) in 37° C. humidified chamber with 5% CO2. Cells were passaged after every 2-3 days using trypsin-EDTA.
Cells were trypsinized, centrifuged and resuspended in culture medium. Cells and then counted by trypan blue method using haemocytometer and plated at 5000 cells per 50 μl into wells of a 96 well microtiter plate. The cells were then incubated overnight under conditions appropriate for the cell line for adherence. […] 10 μl MTT reagent was then added to each well, after respective time period followed by incubation for 4 hours. After 4 hours, when the purple precipitate was clearly visible under the microscope, supernatant was removed carefully by pipette and 100 μl of solubilization solution (DMSO) was added to all wells. The plate was shaken softly for 20 minutes in the dark at room temperature. Then, the absorbance was taken of each well, including the blanks, at 570 nm with reference wavelength at 630 nm in a microtiter plate reader. The average values were determined from triplicate readings and subtracted the average value for the blank.

**Q.** What does the source list for `Nc1cc(N2CCCCC2)nc(N)[n+]1[O-]` [Minoxidil, 2,4-diamino-6 piperidino-pyrimidine-3-oxide]?
**A.** closure of the gap created by the scratch [1]: 89.358%; time at which cell proliferation peaked [2]: 72 h; time to show efficacy / increase the rate of cell proliferation [2]: 48 h; cell proliferation in relation to concentration ([2]; in contrast to the extract): increased cell proliferation at lower concentrations
